Assay results published in patent US6458776B1, “5-ASA derivatives having anti-inflammatory and antibiotic activity and methods of treating diseases therewith” (Nobex Corporation, priority 2000, dated 2002).

What was measured:
[1] = design: species or system rats; conditions: rat, 100 mg/kg
Experimental: 5-[4-(3-Carboxy-propionylsulfamoyl)-phenylazo]-2-hydroxy-benzoic acid (1), a compound of the present invention, and sulfasalazine (used as a control; not part of the present invention) were orally dosed to rats. The degradation and the generation of their metabolites after the oral dosing were measured to be able to confirm that (1) undergoes bacterial azo reduction and yields its metabolites, 5-aminosalicylic acid (5-ASA) and C4 sulfanomide.
This experiment was performed to confirm that (1) undergoes a bacterial reduction process and yields its metabolites in in-vivo metabolism. The quantification of its metabolites was also carried out. Sulfasalazine was used as a control since the same azo bond cleavage by bacteria occurs with it, which results in 5-aminosalicylic acid and sulfapyridine as its metabolites.
A total of 7 rats were used for the experiment and methylcellulose was used as a vehicle. The dosage amount was 100 mg/kg per rat. Three rats were dosed with (1) and the other three rats were dosed with sulfasalazine. One rat was used as a control and dosed with methylcellulose. Both urine and feces were collected over 2 days and analyzed by […].
Urine was collected each day and 300 μL of aliquot from each sample was centrifuged for 10 minutes at 5000 g. 80 μL of supernatant was injected for analysis. Feces was also collected, each day and homogenized with a 1:1 mixture of water and acetonitrile. This mixture was then centrifuged for 20 minutes at 5000 g. 80 μL of supernatant was injected for analysis.
A Waters 2690 HPLC was used for sample analysis as follows:
Mobile phase programming: Gradient
Mobile phase: A=Water+0.1% TFA B=Acetonitrile+0.1% TFA
Column: Phenomenex Max RP, 80 Å, 4.6 mm×250 mm
PDA settings: Collected spectrum: 210-400nm Extracted chromatogram: 280 and/or other
Run time/sample: Approximately 50 min.

| melting point | compounds detected, day 2 collection ([1]; in vivo, po) | metabolites detected in urine ([1]; in vivo, po) | parent compound detected in feces ([1]; in vivo, po) | parent compound detected in urine ([1]; in vivo, po) | azo reduction in vivo ([1]; po) | SMILES | degradation after oral dosing ([1]; in vivo) | metabolites detected in feces, day 1 collection ([1]; in vivo, po) | generation of sulfapyridine ([1]; in vivo, po) |
| --- | --- | --- | --- | --- | --- | --- | --- | --- | --- |
| 192 °C | No compounds were detected | none of its metabolites were detected | not detected | only a very small amount | undergo azo reduction | O=C(O)CCC(=O)NS(=O)(=O)c1ccc(N=Nc2ccc(O)c(C(=O)O)c2)cc1 [(1), 5-[4-(3-Carboxy-propionylsulfamoyl)-phenylazo]-2-hydroxy-benzoic acid] | degraded and its metabolites were produced as expected | acetylated 5-ASA and C4 sulfanomide were detected |  |
| 178 °C |  |  |  |  |  | O=C(O)CC(=O)NS(=O)(=O)c1ccc(N=Nc2ccc(O)c(C(=O)O)c2)cc1 [Example 3, 5-[4-(2-Carboxy-Acetylsulfamoyl)-Phenylazo]-2-Hydroxy-Benzoic Acid] |  |  |  |
|  | No compounds were detected |  |  |  | undergo azo reduction | O=C(O)c1cc(/N=N/c2ccc(S(=O)(=O)Nc3ccccn3)cc2)ccc1O [Sulfasalazine, sulfasalazine, reference compound] | also degraded | Most rats showed acetylated 5-ASA | only one rat showed the generation of sulfapyridine |
